In patent US10392368B2, “Pyrazolo and triazolo bicyclic compounds as JAK kinase inhibitors” (THERAVANCE BIOPHARMA R&D IP, LLC, priority 2017, dated 2019):

How the values were obtained:
[1] = target: T1, JAK1 (Homo sapiens, UniProt P23458); assay: Biochemical JAK1 kinase assay (LanthaScreen); details: for Ki: read-out: JAK 1 (pKi) (converted)
T1 construct: GST; purchased Life Technologies
In short: (§1)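 Recombinant GST-tagged JAK enzymes with GFP-STAT1 peptide substrate in 50 mM HEPES pH 7.5, 10 mM MgCl2, 1 mM EGTA, 0.01% Brij-35; compounds pre-incubated 1 h, then ATP added, 1 h reaction at ambient temperature. TR-FRET (Tb-anti-pSTAT1 pTyr701, 520/495 nm) after EDTA stop; IC50 by 4-parameter fit, converted to pKi via Cheng-Prusoff.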

[2] = target: T2, JAK2 (Homo sapiens, UniProt O60674); assay: Biochemical JAK2 kinase assay (LanthaScreen); details: for Ki: read-out: JAK 2 (pKi) (converted)
T2 construct: GST; purchased Life Technologies
In short: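 GST-tagged recombinant JAK2 pre-incubated 1 h at ambient temperature with compound and GFP-STAT1 peptide in HEPES pH 7.5/MgCl2 buffer, then ATP added for a 1 h reaction with 1% DMSO. TR-FRET read after EDTA and Tb-anti-pSTAT1 (pTyr701) addition; IC50 from 4-parameter fit, converted to pKi by Cheng-Prusoff.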

[3] = target: T3, Tyk2 (Homo sapiens, UniProt P29597); assay: Biochemical Tyk2 kinase assay (LanthaScreen); details: for Ki: read-out: Tyk 2 (pKi) (converted)
T3 construct: GST; purchased Life Technologies
In short: as §1

[4] = test system: IL-2 stimulated pSTAT5 in Tall-1 T cells; assay: Cellular JAK3 potency assay: inhibition of IL-2 stimulated pSTAT5 in Tall-1 T cells; type: cell-based, human; details: for IC50: Homo sapiens, TALL-1, IL-2 stimulated pSTAT5, Tall-1 T cells, read-out: Tall-1 (pIC50) (converted); for Tall-1 (pIC50): IL-2 stimulated pSTAT5, Tall-1 T cells
In short: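 In human Tall-1 T cells, IL-2 (300 ng/ml final, 30 min) drives STAT5 phosphorylation after a 1 h compound pretreatment. Lysates are assayed for pSTAT5 by AlphaLisa, and IC50 derived from signal versus concentration is expressed as pIC50.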

[5] = target: T4, JAK3 (Homo sapiens, UniProt P52333); assay: Biochemical JAK3 kinase assay (LanthaScreen); parameters: GST; purchased Life Technologies; details: for Ki: read-out: JAK 3 (pKi) (converted); for JAK3 (pKi)-JAK1 (pKi): selectivity JAK3 over JAK1, difference of pKi
T4 sequence (P52333 1-1124): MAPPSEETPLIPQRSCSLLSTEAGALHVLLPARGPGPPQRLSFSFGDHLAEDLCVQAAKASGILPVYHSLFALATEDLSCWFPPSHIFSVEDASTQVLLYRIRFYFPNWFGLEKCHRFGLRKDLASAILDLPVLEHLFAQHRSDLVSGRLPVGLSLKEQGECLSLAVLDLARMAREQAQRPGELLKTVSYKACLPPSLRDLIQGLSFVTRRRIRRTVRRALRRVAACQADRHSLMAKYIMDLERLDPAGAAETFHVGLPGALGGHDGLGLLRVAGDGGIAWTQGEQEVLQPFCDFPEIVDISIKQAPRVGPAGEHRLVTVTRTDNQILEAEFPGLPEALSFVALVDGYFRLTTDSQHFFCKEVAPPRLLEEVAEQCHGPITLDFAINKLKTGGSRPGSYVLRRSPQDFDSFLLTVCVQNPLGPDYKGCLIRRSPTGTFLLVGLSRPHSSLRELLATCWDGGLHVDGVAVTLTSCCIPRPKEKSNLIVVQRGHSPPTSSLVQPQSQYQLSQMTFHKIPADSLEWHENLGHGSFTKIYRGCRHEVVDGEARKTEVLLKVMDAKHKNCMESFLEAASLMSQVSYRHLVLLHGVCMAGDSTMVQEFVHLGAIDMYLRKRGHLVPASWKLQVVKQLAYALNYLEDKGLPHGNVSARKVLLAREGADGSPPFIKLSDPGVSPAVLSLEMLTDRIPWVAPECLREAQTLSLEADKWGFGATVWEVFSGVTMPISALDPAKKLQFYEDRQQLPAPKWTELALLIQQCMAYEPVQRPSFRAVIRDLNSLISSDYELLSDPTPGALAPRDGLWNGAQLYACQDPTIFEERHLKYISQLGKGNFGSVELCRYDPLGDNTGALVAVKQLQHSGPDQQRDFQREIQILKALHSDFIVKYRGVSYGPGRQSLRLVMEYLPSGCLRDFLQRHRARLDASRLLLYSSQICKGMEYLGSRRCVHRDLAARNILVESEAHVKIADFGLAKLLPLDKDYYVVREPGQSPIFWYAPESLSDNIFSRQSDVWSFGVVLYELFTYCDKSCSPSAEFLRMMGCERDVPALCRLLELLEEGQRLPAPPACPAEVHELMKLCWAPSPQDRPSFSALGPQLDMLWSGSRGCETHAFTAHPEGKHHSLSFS
In short: as §1

T2 sequence (O60674 whole entry): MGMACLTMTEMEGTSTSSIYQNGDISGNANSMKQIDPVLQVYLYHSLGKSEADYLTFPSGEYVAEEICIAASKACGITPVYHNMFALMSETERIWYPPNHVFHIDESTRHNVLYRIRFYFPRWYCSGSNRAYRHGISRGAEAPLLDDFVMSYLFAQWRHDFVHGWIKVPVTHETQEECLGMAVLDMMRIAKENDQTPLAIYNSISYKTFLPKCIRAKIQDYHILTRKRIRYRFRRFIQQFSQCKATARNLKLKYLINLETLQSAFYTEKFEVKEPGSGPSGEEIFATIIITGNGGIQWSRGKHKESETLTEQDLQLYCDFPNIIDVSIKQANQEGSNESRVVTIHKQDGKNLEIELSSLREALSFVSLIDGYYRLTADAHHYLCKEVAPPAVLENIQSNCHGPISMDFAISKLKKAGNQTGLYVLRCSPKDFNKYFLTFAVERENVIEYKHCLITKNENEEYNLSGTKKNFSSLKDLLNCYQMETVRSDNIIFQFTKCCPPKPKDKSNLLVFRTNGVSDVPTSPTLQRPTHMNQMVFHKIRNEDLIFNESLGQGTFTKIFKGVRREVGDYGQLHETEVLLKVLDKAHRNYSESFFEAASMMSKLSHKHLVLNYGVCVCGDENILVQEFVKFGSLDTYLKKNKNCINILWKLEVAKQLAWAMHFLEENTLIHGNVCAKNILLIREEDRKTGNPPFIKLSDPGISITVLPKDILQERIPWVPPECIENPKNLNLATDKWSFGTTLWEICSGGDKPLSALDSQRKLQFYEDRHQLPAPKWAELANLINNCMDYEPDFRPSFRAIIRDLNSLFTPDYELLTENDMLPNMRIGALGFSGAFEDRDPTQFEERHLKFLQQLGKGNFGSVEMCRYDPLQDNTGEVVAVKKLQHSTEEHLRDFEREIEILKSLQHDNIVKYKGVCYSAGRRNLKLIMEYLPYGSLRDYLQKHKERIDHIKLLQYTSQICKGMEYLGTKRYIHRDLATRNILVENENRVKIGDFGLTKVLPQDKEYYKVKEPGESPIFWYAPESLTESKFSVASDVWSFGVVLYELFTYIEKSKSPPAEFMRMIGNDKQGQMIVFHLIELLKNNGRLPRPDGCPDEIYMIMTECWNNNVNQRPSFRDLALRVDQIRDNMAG
T1 sequence (P23458 whole entry): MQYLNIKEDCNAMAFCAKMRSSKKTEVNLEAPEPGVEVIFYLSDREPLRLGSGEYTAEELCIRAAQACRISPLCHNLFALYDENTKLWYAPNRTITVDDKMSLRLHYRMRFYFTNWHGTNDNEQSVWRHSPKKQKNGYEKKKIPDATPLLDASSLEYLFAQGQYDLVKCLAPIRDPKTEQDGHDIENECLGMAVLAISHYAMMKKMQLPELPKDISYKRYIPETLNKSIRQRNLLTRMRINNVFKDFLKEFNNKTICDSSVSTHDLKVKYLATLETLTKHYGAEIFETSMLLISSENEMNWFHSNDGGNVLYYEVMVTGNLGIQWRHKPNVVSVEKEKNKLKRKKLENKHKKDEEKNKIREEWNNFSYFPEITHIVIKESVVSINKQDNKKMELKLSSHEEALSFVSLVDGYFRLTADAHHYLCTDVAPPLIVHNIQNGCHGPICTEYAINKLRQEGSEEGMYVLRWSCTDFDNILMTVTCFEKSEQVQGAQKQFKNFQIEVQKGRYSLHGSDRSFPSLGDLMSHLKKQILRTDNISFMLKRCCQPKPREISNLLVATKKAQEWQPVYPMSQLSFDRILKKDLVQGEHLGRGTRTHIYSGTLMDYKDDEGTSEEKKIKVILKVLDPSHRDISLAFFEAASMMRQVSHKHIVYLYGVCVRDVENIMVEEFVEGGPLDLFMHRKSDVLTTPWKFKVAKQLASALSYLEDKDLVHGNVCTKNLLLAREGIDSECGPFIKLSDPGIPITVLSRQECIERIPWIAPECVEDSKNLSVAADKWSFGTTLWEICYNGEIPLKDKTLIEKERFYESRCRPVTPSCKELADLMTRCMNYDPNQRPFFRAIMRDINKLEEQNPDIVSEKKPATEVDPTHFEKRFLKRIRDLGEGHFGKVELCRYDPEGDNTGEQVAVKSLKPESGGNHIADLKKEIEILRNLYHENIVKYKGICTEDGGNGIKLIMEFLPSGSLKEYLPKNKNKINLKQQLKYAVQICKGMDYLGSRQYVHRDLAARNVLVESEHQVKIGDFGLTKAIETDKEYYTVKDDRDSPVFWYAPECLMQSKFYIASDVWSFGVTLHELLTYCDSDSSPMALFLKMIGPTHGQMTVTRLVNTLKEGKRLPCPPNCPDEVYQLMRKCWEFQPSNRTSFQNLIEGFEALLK
T3 sequence (P29597 whole entry): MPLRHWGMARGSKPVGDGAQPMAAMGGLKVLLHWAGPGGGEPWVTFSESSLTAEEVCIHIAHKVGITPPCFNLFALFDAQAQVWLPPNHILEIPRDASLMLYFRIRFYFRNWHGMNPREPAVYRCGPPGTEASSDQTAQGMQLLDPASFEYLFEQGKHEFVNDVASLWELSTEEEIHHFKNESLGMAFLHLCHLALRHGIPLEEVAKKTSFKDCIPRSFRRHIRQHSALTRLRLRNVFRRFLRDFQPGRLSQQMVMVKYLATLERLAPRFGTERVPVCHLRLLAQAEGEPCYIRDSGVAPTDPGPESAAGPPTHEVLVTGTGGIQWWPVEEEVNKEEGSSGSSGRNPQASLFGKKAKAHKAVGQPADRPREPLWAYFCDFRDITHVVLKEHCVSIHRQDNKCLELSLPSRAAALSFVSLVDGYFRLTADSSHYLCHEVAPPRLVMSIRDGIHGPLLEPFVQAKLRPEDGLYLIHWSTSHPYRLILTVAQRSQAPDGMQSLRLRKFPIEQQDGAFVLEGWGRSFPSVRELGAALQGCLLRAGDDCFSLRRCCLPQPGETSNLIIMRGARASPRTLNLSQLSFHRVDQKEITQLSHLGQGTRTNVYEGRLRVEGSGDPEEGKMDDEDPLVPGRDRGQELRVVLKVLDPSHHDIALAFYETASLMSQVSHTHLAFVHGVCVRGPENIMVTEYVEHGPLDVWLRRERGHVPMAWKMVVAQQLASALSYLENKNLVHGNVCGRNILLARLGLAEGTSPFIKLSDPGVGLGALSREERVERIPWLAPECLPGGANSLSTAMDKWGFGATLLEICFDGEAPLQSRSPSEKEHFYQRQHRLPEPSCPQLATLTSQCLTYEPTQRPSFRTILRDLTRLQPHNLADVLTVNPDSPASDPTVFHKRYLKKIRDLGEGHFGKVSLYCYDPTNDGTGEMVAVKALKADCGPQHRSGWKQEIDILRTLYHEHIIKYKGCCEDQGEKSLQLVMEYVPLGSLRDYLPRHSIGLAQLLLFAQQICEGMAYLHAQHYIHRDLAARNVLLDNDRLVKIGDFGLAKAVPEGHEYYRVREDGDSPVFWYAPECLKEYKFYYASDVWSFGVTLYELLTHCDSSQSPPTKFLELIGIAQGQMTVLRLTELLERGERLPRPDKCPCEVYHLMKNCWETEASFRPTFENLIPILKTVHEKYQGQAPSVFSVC

Row | SMILES | Ki [1] [nM] | Ki [2] [nM] | Ki [3] [nM] | IC50 [4] [nM] | Ki [5] [nM] | JAK3 (pKi)-JAK1 (pKi) [5] | JAK 1 (pKi) [1] | JAK 2 (pKi) [2] | Tyk 2 (pKi) [3] | Tall-1 (pIC50) [4] | JAK 3 (pKi) [5]
1 | C=CC(=O)N1CCC(Oc2cc(-c3ccc(O)cc3)cc3[nH]ncc23)CC1 [Compound 6-2] | 10 to 100 | 10 to 100 | > 100 | < 31.6 | < 0.1 | B (a value of 2.3 to 3) | – | – | – | – | –
2 | C=CC(=O)N1CCC(C)(Oc2cc(-c3ccc(O)cc3)cc3[nH]ncc23)CC1 [Compound 6-3] | > 100 | 10 to 100 | > 100 | < 31.6 | 0.1 to 1 | A (a value of 3 or above) | – | – | – | – | –
3 | CN(C)C/C=C/C(=O)N1CCC(C)(Oc2cc(-c3ccc(O)c(Cl)c3)cc3[nH]ncc23)CC1 [Compound 6-4] | > 100 | 10 to 100 | > 100 | 31.6 to 200 | < 0.1 | A (a value of 3 or above) | – | – | – | – | –
4 | CN(C)C/C=C/C(=O)N1CCC(C)(Oc2cc(-c3ccc(O)c(F)c3)cc3[nH]ncc23)CC1 [Compound 6-6] | > 100 | 10 to 100 | > 100 | < 31.6 | 0.1 to 1 | A (a value of 3 or above) | – | – | – | – | –
5 | C=CC(=O)N1CCC(Oc2cc(-c3ccc(O)c(Cl)c3)cc3[nH]ncc23)CC1 [Compound 6-13] | – | – | – | – | – | B (a value of 2.3 to 3) | E (a pKi value of 7 or below (Ki of 100 nM or above)) | D (a pKi value between 7 and 8 (Ki between 100 nM and 10 nM)) | E (a pKi value of 7 or below (Ki of 100 nM or above)) | A (a pIC50 value≥7.5 (IC50≤32 nM)) | B (a pKi value between 9 and 10 (Ki between 1 nM and 0.1 nM))
6 | C=CC(=O)N1CCC(Oc2nc(-c3ccc(O)cc3)cc3[nH]ncc23)CC1 [Compound 6-15] | > 100 | 10 to 100 | > 100 | 31.6 to 200 | 0.1 to 1 | A (a value of 3 or above) | – | – | – | – | –
7 | C=CC(=O)N1CCC(Oc2nc(-c3ccc(O)c(F)c3)cc3[nH]ncc23)CC1 [Compound 6-16] | > 100 | 10 to 100 | > 100 | 31.6 to 200 | 0.1 to 1 | A (a value of 3 or above) | – | – | – | – | –
8 | C=CC(=O)N1CCC(Oc2cc(-c3ccc(O)c(Cl)c3)nc3[nH]ncc23)CC1 [Compound 6-17] | > 100 | > 100 | > 100 | 31.6 to 200 | < 0.1 | A (a value of 3 or above) | – | – | – | – | –
9 | C=CC(=O)N1CCC(Oc2cc(-c3ccc(O)c(F)c3)nc3[nH]ncc23)CC1 [Compound 6-18] | > 100 | > 100 | > 100 | 31.6 to 200 | < 0.1 | A (a value of 3 or above) | – | – | – | – | –
10 | CN(C)C/C=C/C(=O)N1CCC(Oc2cc(-c3ccc(O)c(F)c3)cc3[nH]ncc23)CC1 [Compound 6-20] | 10 to 100 | 1 to 10 | > 100 | 31.6 to 200 | 0.1 to 1 | B (a value of 2.3 to 3) | – | – | – | – | –
11 | C=CC(=O)N1CCC(Oc2nc(-c3ccc(O)c(Cl)c3)cc3[nH]ncc23)CC1 [Compound 6-21] | – | – | – | – | – | B (a value of 2.3 to 3) | D (a pKi value between 7 and 8 (Ki between 100 nM and 10 nM)) | D (a pKi value between 7 and 8 (Ki between 100 nM and 10 nM)) | E (a pKi value of 7 or below (Ki of 100 nM or above)) | B (a pIC50 value between 6.7 (included) and 7.5 (IC50 between 200 nM and 32 nM)) | B (a pKi value between 9 and 10 (Ki between 1 nM and 0.1 nM))
12 | C=CC(=O)N1CCC(C)(Nc2cc(-c3ccc(O)cc3)cc3[nH]ncc23)CC1 [Compound 7-2] | – | – | – | – | – | A (a value of 3 or above) | E (a pKi value of 7 or below (Ki of 100 nM or above)) | D (a pKi value between 7 and 8 (Ki between 100 nM and 10 nM)) | E (a pKi value of 7 or below (Ki of 100 nM or above)) | A (a pIC50 value≥7.5 (IC50≤32 nM)) | B (a pKi value between 9 and 10 (Ki between 1 nM and 0.1 nM))
13 | C=CC(=O)N1CCC(N(C)c2cc(-c3ccc(O)cc3)cc3[nH]ncc23)CC1 [Compound 7-3] | – | – | – | – | – | A (a value of 3 or above) | E (a pKi value of 7 or below (Ki of 100 nM or above)) | E (a pKi value of 7 or below (Ki of 100 nM or above)) | E (a pKi value of 7 or below (Ki of 100 nM or above)) | B (a pIC50 value between 6.7 (included) and 7.5 (IC50 between 200 nM and 32 nM)) | B (a pKi value between 9 and 10 (Ki between 1 nM and 0.1 nM))
14 | C=CC(=O)N1CCC(Nc2cc(-c3ccc(O)cc3)cc3[nH]ncc23)CC1 [Compound 7-4] | 10 to 100 | 1 to 10 | > 100 | < 31.6 | 0.1 to 1 | B (a value of 2.3 to 3) | – | – | – | – | –
15 | C=CC(=O)N1CCC(N(C)c2cc(-c3ccc(O)c(Cl)c3)cc3[nH]ncc23)CC1 [Compound 7-7] | – | – | – | – | – | A (a value of 3 or above) | E (a pKi value of 7 or below (Ki of 100 nM or above)) | D (a pKi value between 7 and 8 (Ki between 100 nM and 10 nM)) | E (a pKi value of 7 or below (Ki of 100 nM or above)) | B (a pIC50 value between 6.7 (included) and 7.5 (IC50 between 200 nM and 32 nM)) | B (a pKi value between 9 and 10 (Ki between 1 nM and 0.1 nM))
16 | CN(C)C/C=C/C(=O)N1CCC(C)(Nc2cc(-c3ccc(O)c(Cl)c3)cc3[nH]ncc23)CC1 [Compound 7-8] | – | – | – | – | – | A (a value of 3 or above) | E (a pKi value of 7 or below (Ki of 100 nM or above)) | E (a pKi value of 7 or below (Ki of 100 nM or above)) | E (a pKi value of 7 or below (Ki of 100 nM or above)) | B (a pIC50 value between 6.7 (included) and 7.5 (IC50 between 200 nM and 32 nM)) | A (a pKi value≥10 (Ki≤0.1 nM))
17 | C=CC(=O)N1CCC(N(C)c2cc(-c3ccc(O)c(F)c3)cc3[nH]ncc23)CC1 [Compound 7-9] | > 100 | 10 to 100 | > 100 | < 31.6 | < 0.1 | A (a value of 3 or above) | – | – | – | – | –
18 | C=CC(=O)N1CCC(N(C)c2cc(-c3ccc(O)c(F)c3)cc3[nH]ncc23)CC1 [Compound 7-10] | – | – | – | – | – | A (a value of 3 or above) | E (a pKi value of 7 or below (Ki of 100 nM or above)) | D (a pKi value between 7 and 8 (Ki between 100 nM and 10 nM)) | E (a pKi value of 7 or below (Ki of 100 nM or above)) | B (a pIC50 value between 6.7 (included) and 7.5 (IC50 between 200 nM and 32 nM)) | B (a pKi value between 9 and 10 (Ki between 1 nM and 0.1 nM))
